Measured values: US20250243189A1, “HERBICIDAL IMIDAZOLE-CONTAINING COMPOUNDS” (SYNGENTA CROP PROTECTION AG, priority 2022, published 2025)

Assays:
Type in all cases: in vivo
Conditions in all cases: 250 g/ha, evaluated after 13 days, five-point scale
[1] = system: Echinochloa crus-galli (ECHCG); assay: Post-emergence herbicidal glasshouse test
Description: (§1) Seeds of a variety of test species are sown in standard soil in pots Amaranthus retoflexus (AMARE), Echinochloa crus-galli (ECHCG), Setaria faberi (SETFA)). After cultivation for one day (pre-emergence) or after 8 days cultivation (post-emergence) under controlled conditions in a glasshouse (at 24/16° C., day/night; 14 hours light; 65% humidity), the plants are sprayed with an aqueous spray solution derived from the formulation of the technical active ingredient in acetone/water (50:50) solution containing 0.5% Tween 20 (polyoxyethelyene sorbitan monolaurate, CAS RN 9005-64-5). Compounds are applied at 250 g/ha unless otherwise stated. The test plants are then grown in a glasshouse under controlled conditions in a glasshouse (at 24/16° C., day/night; 14 hours light; 65% humidity) and watered twice daily. After 13 days for pre and post-emergence, the test is evaluated for the percentage damage caused to the plant. The biological activities are shown in the following table on a five-point scale (5=81-100%; 4=61-80%; 3=41-60%; 2=21-40%; 1=0-20%).

[2] = system: Amaranthus retoflexus (AMARE); assay: Post-emergence herbicidal glasshouse test
Description: as §1

IPOHE [3] = assay: Post-emergence herbicidal glasshouse test
Description: as §1

AMAPA [4] = assay: Post-emergence herbicidal glasshouse test
Description: [Worded in the source for another organism; this organism is reported under the same test.] as §1

[5] = system: Echinochloa crus-galli (ECHCG); assay: Pre-emergence herbicidal glasshouse test
Description: as §1

[6] = system: Amaranthus retoflexus (AMARE); assay: Pre-emergence herbicidal glasshouse test
Description: as §1

IPOHE [7] = assay: Pre-emergence herbicidal glasshouse test
Description: as §1

AMAPA [8] = assay: Pre-emergence herbicidal glasshouse test
Description: [Worded in the source for another organism; this organism is reported under the same test.] as §1

SMILES	percentage damage caused to the plant, ECHCG [1]	percentage damage caused to the plant, AMARE [2]	percentage damage caused to the plant, IPOHE (IPOHE [3])	percentage damage caused to the plant, AMAPA (AMAPA [4])	percentage damage caused to the plant, ECHCG [5]	percentage damage caused to the plant, AMARE [6]	percentage damage caused to the plant, IPOHE (IPOHE [7])	percentage damage caused to the plant, AMAPA (AMAPA [8])
Fc1ccc(-c2nc(C(F)(F)F)cn2Cc2ncc(Cl)cn2)s1 [Compound 1.038]	5 (5=81-100%)	5 (5=81-100%)	4 (4=61-80%)	4 (4=61-80%)	5 (5=81-100%)	5 (5=81-100%)	5 (5=81-100%)	5 (5=81-100%)
Cn1ccc(-c2nc(C(F)(F)F)cn2Cc2ncc(Cl)cn2)n1 [Compound 1.004]	1 (1=0-20%)	1 (1=0-20%)	1 (1=0-20%)	1 (1=0-20%)	1 (1=0-20%)	1 (1=0-20%)	1 (1=0-20%)	1 (1=0-20%)
Cn1cc(Cl)c(-c2nc(C(F)(F)F)cn2Cc2ncc(Cl)cn2)n1 [Compound 1.043]	1 (1=0-20%)	1 (1=0-20%)	1 (1=0-20%)	1 (1=0-20%)	1 (1=0-20%)	1 (1=0-20%)	1 (1=0-20%)	1 (1=0-20%)
FC(F)n1cc(-c2nc(C(F)(F)F)cn2Cc2ncc(Cl)cn2)cn1 [Compound 1.017]	5 (5=81-100%)	5 (5=81-100%)	5 (5=81-100%)	5 (5=81-100%)	5 (5=81-100%)	5 (5=81-100%)	5 (5=81-100%)	5 (5=81-100%)
Fc1cc(Cl)cnc1Cn1cc(C(F)(F)F)nc1-c1ccc(Cl)s1 [Compound 1.051]	4 (4=61-80%)	5 (5=81-100%)	3 (3=41-60%)	5 (5=81-100%)	5 (5=81-100%)	5 (5=81-100%)	4 (4=61-80%)	5 (5=81-100%)
FC(F)(F)c1cn(Cc2ncc(Cl)cn2)c(-c2scnc2Cl)n1 [Compound 1.045]	2 (2=21-40%)	4 (4=61-80%)	4 (4=61-80%)	4 (4=61-80%)	1 (1=0-20%)	5 (5=81-100%)	5 (5=81-100%)	5 (5=81-100%)
FC(F)c1cn(Cc2ncc(Cl)cn2)c(-c2ccc(Cl)s2)n1 [Compound 1.058, 5-chloro-2-[[2-(5-chloro-2-thienyl)-4-(difluoromethyl)imidazol-1-yl]methyl]pyrimidine]	4 (4=61-80%)	5 (5=81-100%)	4 (4=61-80%)	5 (5=81-100%)	5 (5=81-100%)	5 (5=81-100%)	5 (5=81-100%)	5 (5=81-100%)
Cc1cnc(Cn2cc(C(F)(F)F)nc2-c2ccc(Cl)s2)nc1 [Compound 1.072]	5 (5=81-100%)	5 (5=81-100%)	4 (4=61-80%)	5 (5=81-100%)	5 (5=81-100%)	5 (5=81-100%)	5 (5=81-100%)	5 (5=81-100%)
FC(F)(F)c1cn(Cc2ncc(Cl)cn2)c(-c2sc(Cl)nc2Cl)n1 [Compound 1.046]	1 (1=0-20%)	2 (2=21-40%)	1 (1=0-20%)	2 (2=21-40%)	1 (1=0-20%)	1 (1=0-20%)	1 (1=0-20%)	4 (4=61-80%)
FC(F)c1cn(Cc2ncc(Cl)cn2)c(-c2cnc(Cl)s2)n1 [Compound 1.071, 2-chloro-5-[1-[(5-chloropyrimidin-2-yl)methyl]-4-(difluoromethyl)imidazol-2-yl]thiazole]	4 (4=61-80%)	5 (5=81-100%)	2 (2=21-40%)	4 (4=61-80%)	4 (4=61-80%)	5 (5=81-100%)	5 (5=81-100%)	5 (5=81-100%)
FC(F)(F)c1cn(Cc2ccc(Cl)cn2)c(-c2ccc(Cl)s2)n1 [Compound 1.047]	4 (4=61-80%)	5 (5=81-100%)	4 (4=61-80%)	5 (5=81-100%)	4 (4=61-80%)	5 (5=81-100%)	2 (2=21-40%)	5 (5=81-100%)
Cc1nnsc1-c1nc(C(F)(F)F)cn1Cc1ncc(Cl)cn1 [Compound 1.007]	2 (2=21-40%)	5 (5=81-100%)	4 (4=61-80%)	4 (4=61-80%)	4 (4=61-80%)	5 (5=81-100%)	5 (5=81-100%)	5 (5=81-100%)
Cc1ccc(-c2nc(C(F)(F)F)cn2Cc2ncc(Cl)cn2)s1 [Compound 1.011]	4 (4=61-80%)	4 (4=61-80%)	2 (2=21-40%)	4 (4=61-80%)	5 (5=81-100%)	5 (5=81-100%)	5 (5=81-100%)	5 (5=81-100%)
FC(F)(F)c1cn(Cc2ncc(Cl)cn2)c(-c2cnco2)n1 [Compound 1.020]	1 (1=0-20%)	3 (3=41-60%)	4 (4=61-80%)	2 (2=21-40%)	1 (1=0-20%)	5 (5=81-100%)	4 (4=61-80%)	3 (3=41-60%)
FC(F)(F)c1cn(Cc2ncc(Cl)cn2)c(-c2cscn2)n1 [Compound 1.023]	1 (1=0-20%)	1 (1=0-20%)	2 (2=21-40%)	1 (1=0-20%)	1 (1=0-20%)		1 (1=0-20%)	1 (1=0-20%)
FC(F)(F)c1cn(Cc2ncc(Cl)cn2)c(-c2nccs2)n1 [Compound 1.022]	1 (1=0-20%)	1 (1=0-20%)	1 (1=0-20%)	1 (1=0-20%)	1 (1=0-20%)		1 (1=0-20%)	1 (1=0-20%)
FC(F)Oc1cccc(Cn2cc(C(F)(F)F)nc2-c2ccc(Cl)s2)n1 [Compound 1.048]	1 (1=0-20%)	1 (1=0-20%)	1 (1=0-20%)	1 (1=0-20%)	1 (1=0-20%)	1 (1=0-20%)		1 (1=0-20%)
Cc1nc(-c2nc(C(F)(F)F)cn2Cc2ncc(Cl)cn2)co1 [Compound 1.018]	1 (1=0-20%)	2 (2=21-40%)	2 (2=21-40%)	1 (1=0-20%)	1 (1=0-20%)	2 (2=21-40%)	1 (1=0-20%)	
